From PubChem BioAssay (NCI)
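Tested at 5 concentrations; 48 h exposure; 96-well plates; endpoints linearly interpolated, else capped at highest concentration. GI50: concentration for 50% inhibition of growth. TGI denotes the concentration required for complete inhibition of growth.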

How the values were obtained:
Experiment in all cases: growth of human tumour cells (NCI), 48 h
NCI-H23 lung = test system: NCI-H23 lung
K-562 leukemia = test system: K-562 leukemia
UACC-62 melanoma = test system: UACC-62 melanoma
PC-3 prostate = test system: PC-3 prostate
A549 NSCLC = test system: A549 NSCLC
OVCAR-5 ovarian = test system: OVCAR-5 ovarian
COLO 205 colon = test system: COLO 205 colon
T-47D breast = test system: T-47D breast
SF-539 CNS = test system: SF-539 CNS
U251 CNS = test system: U251 CNS
SF-295 CNS = test system: SF-295 CNS
EKVX NSCLC = test system: EKVX NSCLC
OVCAR-4 ovarian = test system: OVCAR-4 ovarian
M14 melanoma = test system: M14 melanoma
HT29 colon = test system: HT29 colon
SNB-75 CNS = test system: SNB-75 CNS
786-0 renal = test system: 786-0 renal
NCI/ADR-RES ovarian = test system: NCI/ADR-RES ovarian
SK-MEL-2 melanoma = test system: SK-MEL-2 melanoma
RPMI-8226 leukemia = test system: RPMI-8226 leukemia
SK-OV-3 ovarian = test system: SK-OV-3 ovarian
UO-31 renal = test system: UO-31 renal
BT-549 breast = test system: BT-549 breast
MDA-MB-231 breast = test system: MDA-MB-231 breast
NCI-H522 lung = test system: NCI-H522 lung
NCI-H460 lung = test system: NCI-H460 lung
SR leukemia = test system: SR leukemia
OVCAR-8 ovarian = test system: OVCAR-8 ovarian
CCRF-CEM leukemia = test system: CCRF-CEM leukemia
MCF7 breast = test system: MCF7 breast
HS 578T breast = test system: HS 578T breast
SN12C renal = test system: SN12C renal
SW-620 colon = test system: SW-620 colon
HOP-62 NSCLC = test system: HOP-62 NSCLC
HL-60(TB) leukemia = test system: HL-60(TB) leukemia
MOLT-4 leukemia = test system: MOLT-4 leukemia
SK-MEL-5 melanoma = test system: SK-MEL-5 melanoma
SNB-19 CNS = test system: SNB-19 CNS
KM12 colon = test system: KM12 colon
UACC-257 melanoma = test system: UACC-257 melanoma
TK-10 renal = test system: TK-10 renal
HCC-2998 colon = test system: HCC-2998 colon
A498 renal = test system: A498 renal
DU-145 prostate = test system: DU-145 prostate
ACHN renal = test system: ACHN renal
OVCAR-3 ovarian = test system: OVCAR-3 ovarian
LOX IMVI melanoma = test system: LOX IMVI melanoma
HOP-92 NSCLC = test system: HOP-92 NSCLC
MDA-MB-435 = test system: MDA-MB-435
HCT-116 colon = test system: HCT-116 colon
SF-268 CNS = test system: SF-268 CNS
CAKI-1 renal = test system: CAKI-1 renal
RXF 393 renal = test system: RXF 393 renal
HCT-15 colon = test system: HCT-15 colon
IGROV1 ovarian = test system: IGROV1 ovarian
MALME-3M melanoma = test system: MALME-3M melanoma
NCI-H226 lung = test system: NCI-H226 lung
SK-MEL-28 melanoma = test system: SK-MEL-28 melanoma

Question: With NC(=O)c1cccc(N2Cc3ccccc3OC3=C2C(=O)c2c(O)ccc(O)c2C3=O)c1 as the compound, how does the GI50 (NCI-H23 lung) read?
Answer: 1590 nM

Question: And the TGI (NCI-H23 lung)?
Answer: 4500 nM

Question: What about the GI50 (K-562 leukemia) of the same compound?
Answer: 164 nM

Question: What about the TGI (K-562 leukemia) of the same compound?
Answer: 1330 nM

Question: And the GI50 (UACC-62 melanoma)?
Answer: 319 nM

Question: And the TGI (UACC-62 melanoma)?
Answer: 1140 nM

Question: What about the GI50 (PC-3 prostate) of the same compound?
Answer: 1280 nM

Question: What about the TGI (PC-3 prostate) of the same compound?
Answer: 4560 nM

Question: And the GI50 (A549 NSCLC)?
Answer: 2830 nM

Question: What about the TGI (A549 NSCLC) of the same compound?
Answer: 10100 nM

Question: What about the GI50 (OVCAR-5 ovarian) of the same compound?
Answer: 1280 nM

Question: And the TGI (OVCAR-5 ovarian)?
Answer: 2870 nM

Question: And the GI50 (COLO 205 colon)?
Answer: 112 nM

Question: What about the TGI (COLO 205 colon) of the same compound?
Answer: 298 nM

Question: What about the GI50 (T-47D breast) of the same compound?
Answer: 213 nM

Question: What about the TGI (T-47D breast) of the same compound?
Answer: 746 nM

Question: And the GI50 (SF-539 CNS)?
Answer: 1250 nM

Question: And the TGI (SF-539 CNS)?
Answer: 2630 nM

Question: What about the GI50 (U251 CNS) of the same compound?
Answer: 1510 nM

Question: And the TGI (U251 CNS)?
Answer: 4590 nM

Question: What about the GI50 (SF-295 CNS) of the same compound?
Answer: 2210 nM

Question: And the TGI (SF-295 CNS)?
Answer: 5990 nM

Question: What about the GI50 (EKVX NSCLC) of the same compound?
Answer: 1260 nM

Question: And the TGI (EKVX NSCLC)?
Answer: 4090 nM

Question: And the GI50 (OVCAR-4 ovarian)?
Answer: 312 nM

Question: And the TGI (OVCAR-4 ovarian)?
Answer: 1130 nM

Question: And the GI50 (M14 melanoma)?
Answer: 554 nM

Question: And the TGI (M14 melanoma)?
Answer: 1970 nM

Question: And the GI50 (HT29 colon)?
Answer: 302 nM

Question: And the TGI (HT29 colon)?
Answer: 1150 nM

Question: And the GI50 (SNB-75 CNS)?
Answer: 1490 nM

Question: And the TGI (SNB-75 CNS)?
Answer: 6670 nM

Question: And the GI50 (786-0 renal)?
Answer: 276 nM

Question: What about the TGI (786-0 renal) of the same compound?
Answer: 986 nM

Question: What about the GI50 (NCI/ADR-RES ovarian) of the same compound?
Answer: 2130 nM

Question: What about the TGI (NCI/ADR-RES ovarian) of the same compound?
Answer: 35600 nM

Question: And the GI50 (SK-MEL-2 melanoma)?
Answer: 1960 nM

Question: And the TGI (SK-MEL-2 melanoma)?
Answer: 4790 nM

Question: And the GI50 (RPMI-8226 leukemia)?
Answer: 319 nM

Question: And the TGI (RPMI-8226 leukemia)?
Answer: 1360 nM

Question: And the GI50 (SK-OV-3 ovarian)?
Answer: 3510 nM

Question: What about the TGI (SK-OV-3 ovarian) of the same compound?
Answer: 13000 nM

Question: What about the GI50 (UO-31 renal) of the same compound?
Answer: 138 nM

Question: And the TGI (UO-31 renal)?
Answer: 344 nM

Question: And the GI50 (BT-549 breast)?
Answer: 944 nM

Question: And the TGI (BT-549 breast)?
Answer: 2410 nM

Question: What about the GI50 (MDA-MB-231 breast) of the same compound?
Answer: 342 nM

Question: And the TGI (MDA-MB-231 breast)?
Answer: 1040 nM

Question: And the GI50 (NCI-H522 lung)?
Answer: 68.2 nM

Question: What about the TGI (NCI-H522 lung) of the same compound?
Answer: 256 nM

Question: And the GI50 (NCI-H460 lung)?
Answer: 2340 nM

Question: And the TGI (NCI-H460 lung)?
Answer: 6120 nM

Question: What about the GI50 (SR leukemia) of the same compound?
Answer: 88 nM

Question: And the TGI (SR leukemia)?
Answer: 912 nM

Question: What about the GI50 (OVCAR-8 ovarian) of the same compound?
Answer: 304 nM

Question: What about the TGI (OVCAR-8 ovarian) of the same compound?
Answer: 1500 nM

Question: And the GI50 (CCRF-CEM leukemia)?
Answer: 120 nM

Question: What about the TGI (CCRF-CEM leukemia) of the same compound?
Answer: 595 nM

Question: And the GI50 (MCF7 breast)?
Answer: 327 nM

Question: And the TGI (MCF7 breast)?
Answer: 1730 nM

Question: And the GI50 (HS 578T breast)?
Answer: 3280 nM

Question: What about the TGI (HS 578T breast) of the same compound?
Answer: 30800 nM

Question: And the GI50 (SN12C renal)?
Answer: 1440 nM

Question: And the TGI (SN12C renal)?
Answer: 3400 nM

Question: And the GI50 (SW-620 colon)?
Answer: 275 nM

Question: What about the TGI (SW-620 colon) of the same compound?
Answer: 1030 nM

Question: And the GI50 (HOP-62 NSCLC)?
Answer: 2140 nM

Question: And the TGI (HOP-62 NSCLC)?
Answer: 5960 nM

Question: And the GI50 (HL-60(TB) leukemia)?
Answer: 188 nM

Question: And the TGI (HL-60(TB) leukemia)?
Answer: 496 nM

Question: What about the GI50 (MOLT-4 leukemia) of the same compound?
Answer: 235 nM

Question: And the TGI (MOLT-4 leukemia)?
Answer: 1090 nM

Question: And the GI50 (SK-MEL-5 melanoma)?
Answer: 1760 nM

Question: And the TGI (SK-MEL-5 melanoma)?
Answer: 3840 nM

Question: And the GI50 (SNB-19 CNS)?
Answer: 3000 nM

Question: And the TGI (SNB-19 CNS)?
Answer: 10800 nM

Question: What about the GI50 (KM12 colon) of the same compound?
Answer: 1880 nM

Question: And the TGI (KM12 colon)?
Answer: 4880 nM

Question: And the GI50 (UACC-257 melanoma)?
Answer: 531 nM

Question: What about the TGI (UACC-257 melanoma) of the same compound?
Answer: 1730 nM

Question: And the GI50 (TK-10 renal)?
Answer: 221 nM

Question: And the TGI (TK-10 renal)?
Answer: 682 nM

Question: And the GI50 (HCC-2998 colon)?
Answer: 1960 nM

Question: What about the TGI (HCC-2998 colon) of the same compound?
Answer: 3640 nM

Question: And the GI50 (A498 renal)?
Answer: 2640 nM

Question: What about the TGI (A498 renal) of the same compound?
Answer: 7210 nM

Question: And the GI50 (DU-145 prostate)?
Answer: 517 nM

Question: What about the TGI (DU-145 prostate) of the same compound?
Answer: 1640 nM

Question: What about the GI50 (ACHN renal) of the same compound?
Answer: 165 nM

Question: And the TGI (ACHN renal)?
Answer: 485 nM

Question: And the GI50 (OVCAR-3 ovarian)?
Answer: 233 nM

Question: And the TGI (OVCAR-3 ovarian)?
Answer: 646 nM

Question: What about the GI50 (LOX IMVI melanoma) of the same compound?
Answer: 284 nM

Question: And the TGI (LOX IMVI melanoma)?
Answer: 897 nM

Question: What about the GI50 (HOP-92 NSCLC) of the same compound?
Answer: 270 nM

Question: What about the TGI (HOP-92 NSCLC) of the same compound?
Answer: 752 nM

Question: What about the GI50 (MDA-MB-435) of the same compound?
Answer: 1080 nM

Question: What about the TGI (MDA-MB-435) of the same compound?
Answer: 2860 nM

Question: What about the GI50 (HCT-116 colon) of the same compound?
Answer: 267 nM

Question: What about the TGI (HCT-116 colon) of the same compound?
Answer: 963 nM

Question: And the GI50 (SF-268 CNS)?
Answer: 1340 nM

Question: And the TGI (SF-268 CNS)?
Answer: 3910 nM

Question: What about the GI50 (CAKI-1 renal) of the same compound?
Answer: 301 nM

Question: And the TGI (CAKI-1 renal)?
Answer: 1130 nM

Question: What about the GI50 (RXF 393 renal) of the same compound?
Answer: 189 nM

Question: What about the TGI (RXF 393 renal) of the same compound?
Answer: 433 nM

Question: And the GI50 (HCT-15 colon)?
Answer: 224 nM

Question: And the TGI (HCT-15 colon)?
Answer: 724 nM

Question: What about the GI50 (IGROV1 ovarian) of the same compound?
Answer: 1190 nM

Question: And the TGI (IGROV1 ovarian)?
Answer: 3010 nM

Question: What about the GI50 (MALME-3M melanoma) of the same compound?
Answer: 194 nM

Question: What about the TGI (MALME-3M melanoma) of the same compound?
Answer: 614 nM

Question: What about the GI50 (NCI-H226 lung) of the same compound?
Answer: 2040 nM

Question: What about the TGI (NCI-H226 lung) of the same compound?
Answer: 5950 nM

Question: What about the GI50 (SK-MEL-28 melanoma) of the same compound?
Answer: 433 nM

Question: What about the TGI (SK-MEL-28 melanoma) of the same compound?
Answer: 1500 nM
